Measured values: US9725442B2, “Heterocyclic derivative having PGD2 receptor antagonist activity” (Shionogi & Co., Ltd., priority 2011, dated 2017)
Like-named read-outs stand apart in the source and are kept apart here.

Tests used:
[1] = molecular target: Human DP1 receptor (Homo sapiens (Human), UniProt Q13258); experiment: Human DP1 inhibitory activity in DP1-expressing cell (PGD2-induced cAMP); assay type: cell-based
Procedure: Compounds were categorized as AA (cAMP is less than 100 nM) and A (cAMP is more than 100 nM and less than 5000 nM) as shown in Table 99 and 100.

[2] = molecular target: CRTH2 (Homo sapiens (Human), UniProt Q9Y5Y4); experiment: CRTH2 receptor binding inhibitory activity ([3H]-PGD2 displacement, membranes of CRTH2-expressing K562 cell); details: [3H]-PGD2 displacement, membrane of CRTH2-expressing K562 cell, read-out: Ki
How it was run: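 Incubation ran 60 min at room temperature using 20 μg/well membrane from CRTH2-expressing K562 cells in pH 7.4 Tris/HCl (50 mM) with 10 mM MgCl2.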

[3] = category of cAMP IC50, human DP1 receptor expressing Jurkut cell
[4] = CRTH2 receptor binding, categorized AAAA/AAA

Sequence of CRTH2 (Q9Y5Y4 whole entry): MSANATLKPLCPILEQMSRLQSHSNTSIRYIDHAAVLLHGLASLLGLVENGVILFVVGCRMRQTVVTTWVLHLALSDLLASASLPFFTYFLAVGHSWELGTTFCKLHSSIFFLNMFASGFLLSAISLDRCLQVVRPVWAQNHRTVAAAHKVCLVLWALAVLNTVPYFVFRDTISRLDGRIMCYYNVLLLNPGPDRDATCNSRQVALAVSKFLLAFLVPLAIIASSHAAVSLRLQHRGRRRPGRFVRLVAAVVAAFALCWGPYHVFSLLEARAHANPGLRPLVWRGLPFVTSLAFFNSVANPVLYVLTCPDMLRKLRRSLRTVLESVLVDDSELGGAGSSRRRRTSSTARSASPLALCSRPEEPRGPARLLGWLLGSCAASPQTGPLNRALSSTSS
Sequence of Human DP1 receptor (Q13258 whole entry): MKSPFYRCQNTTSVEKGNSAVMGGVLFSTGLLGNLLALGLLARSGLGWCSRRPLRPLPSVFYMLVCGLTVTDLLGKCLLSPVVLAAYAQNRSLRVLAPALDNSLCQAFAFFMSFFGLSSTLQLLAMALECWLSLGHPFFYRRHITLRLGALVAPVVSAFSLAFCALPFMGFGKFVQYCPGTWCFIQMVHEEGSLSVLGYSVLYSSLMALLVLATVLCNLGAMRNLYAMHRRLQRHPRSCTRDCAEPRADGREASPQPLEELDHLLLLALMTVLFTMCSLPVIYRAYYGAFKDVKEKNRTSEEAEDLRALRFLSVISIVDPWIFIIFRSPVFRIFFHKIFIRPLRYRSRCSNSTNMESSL

Row | Structure (SMILES) | IC50 [1, 3] [nM] | Ki [2, 4] [nM] | Ki [2] [nM] | IC50 ([1]; IC50 of PGD2 (60 nM)-induced cAMP increase, human DP1 receptor expressing Jurkut cell) [nM]
1 | CC(C)Oc1ccc(S(=O)(=O)N2C[C@@H](C)[C@@H](n3nc(CC(=O)O)c4cccnc43)C2)cc1 [Compound I-145] | 100 to 5000 | < 100 | 3.1 | 
2 | CC(C)Oc1ccc(S(=O)(=O)N2C[C@@H](C)[C@@H](n3nc(CC(=O)O)c4ccc(Cl)cc43)C2)cn1 [Compound I-146] | < 100 | < 100 |  | 
3 | CCOc1ccc(S(=O)(=O)N2C[C@@H](C)[C@@H](n3nc(CC(=O)O)c4ccc(F)cc43)C2)c(F)c1 [Compound I-147] | < 100 | < 100 |  | 
4 | CC(C)Oc1ccc(S(=O)(=O)N2C[C@@H](C)[C@@H](n3cc(CC(=O)O)c4cccnc43)C2)cc1 [Compound I-148] | 100 to 5000 | < 100 | 5.6 | 
5 | CC(C)Oc1ccc(S(=O)(=O)N2C[C@@H](C)[C@@H](n3nc(CC(=O)O)c4ccc(F)cc43)C2)nc1 [Compound I-149] | 100 to 5000 | < 100 | 4.8 | 
6 | CCCCOc1ccc(S(=O)(=O)N2C[C@@H](C)[C@@H](n3nc(CC(=O)O)c4ccccc43)C2)cc1 [Compound I-151] | < 100 | < 100 |  | 
7 | C[C@@H]1CN(S(=O)(=O)c2cc3ccccc3s2)C[C@@H]1n1nc(CC(=O)O)c2ccccc21 [Compound I-152] | 100 to 5000 | < 100 | 56 | 
8 | CC1Cc2cc(S(=O)(=O)N3C[C@@H](C)[C@@H](n4nc(CC(=O)O)c5ccccc54)C3)ccc2O1 (stereo partly drawn) [Compound I-153] | < 100 | < 100 | 65 | 
9 | CCOc1ccc(S(=O)(=O)N2C[C@@H](n3nc(CC(=O)O)c4ccc(F)cc43)[C@@H](C)[C@@H]2C#N)cc1 [Compound I-155] | 100 to 5000 | 100 to 5000 |  | 
10 | CC(C)Oc1ccc(S(=O)(=O)N2C[C@@H](C)[C@@H](n3nc(Cc4nnn[nH]4)c4ccc(F)cc43)C2)cc1 [Compound I-157] | 100 to 5000 | 100 to 5000 | 270 | 
11 | C[C@]1(O)CN(S(=O)(=O)c2ccc(F)cc2)C[C@@H]1n1nc(CC(=O)O)c2ccccc21 [Compound I-158] | 100 to 5000 | < 100 |  | 
12 | CCOc1ccc(S(=O)(=O)N2C[C@@H](C)[C@@H](n3nc(CC(=O)O)c4cc(C#N)ccc43)C2)cc1 [Compound I-160] | < 100 | 100 to 5000 |  | 
13 | CCOc1ccc(S(=O)(=O)N2C[C@@H](C)[C@@H](n3nc(CC(=O)O)c4cc(Cl)ccc43)C2)cc1 [Compound I-161] | < 100 | 100 to 5000 |  | 
14 | CCOc1ccc(S(=O)(=O)N2C[C@@H](C)[C@@H](n3nc(CC(=O)O)c4cc(Cl)ccc43)C2)cn1 [Compound I-162] | < 100 | 100 to 5000 |  | 
15 | CC(C)Oc1ccc(S(=O)(=O)N2C[C@@H](C)[C@@H](n3nc(CC(=O)O)c4cc(Cl)ccc43)C2)cc1 [Compound I-163] | < 100 | 100 to 5000 |  | 
16 | CC(C)Oc1ccc(S(=O)(=O)N2C[C@@H](C)[C@@H](n3nc(CC(=O)O)c4cc(C#N)c(F)cc43)C2)cc1 [Compound I-167] | < 100 | 100 to 5000 |  | 
17 | CCOc1ncc(S(=O)(=O)N2C[C@@H](C)[C@@H](n3nc(CC(=O)O)c4ccccc43)C2)s1 [Compound I-168] | < 100 | < 100 |  | 
18 | CCOc1ccc(S(=O)(=O)N2C[C@@H](C)[C@@H](n3nc(CC(=O)O)c4ccc(F)cc43)C2)s1 [Compound I-169] | < 100 | < 100 |  | 
19 | CCOc1ncc(S(=O)(=O)N2C[C@@H](C)[C@@H](n3nc(CC(=O)O)c4ccc(C)cc43)C2)s1 [Compound I-170] | < 100 | < 100 |  | 
20 | CCOc1ccc(S(=O)(=O)N2C[C@@H](C)[C@@H](n3nc(CC(=O)O)c4ccc(C)cc43)C2)s1 [Compound I-171] | < 100 | < 100 |  | 
21 | CCOc1ccc(S(=O)(=O)N2C[C@@H](C)[C@@H](n3nc(CC(=O)O)c4ccc(C#N)cc43)C2)cc1 [Compound I-172] | < 100 | < 100 |  | 
22 | CCOc1ccc(S(=O)(=O)N2C[C@@H](C)[C@@H](n3nc(CC(=O)O)c4ccc(C#N)cc43)C2)cn1 [Compound I-173] | 100 to 5000 | < 100 | 11 | 
23 | CC(C)Oc1ccc(S(=O)(=O)N2C[C@@H](C)[C@@H](n3nc(CC(=O)O)c4cc5c(cc43)OCO5)C2)cc1 [Compound I-174] | < 100 | < 100 | 50 | 99

Row | Structure (SMILES) | IC50 [1, 3] [nM] | Ki [2, 4] [nM] | Ki [2] [nM] | IC50 ([1]; IC50 of PGD2 (60 nM)-induced cAMP increase, human DP1 receptor expressing Jurkut cell) [nM]
24 | CCOc1ccc(S(=O)(=O)N2C[C@@H](C)[C@@H](n3nc(CC(=O)O)c4cc5c(cc43)OCO5)C2)cc1 [Compound I-175] | 100 to 5000 | < 100 |  | 
25 | CCOc1ccc(S(=O)(=O)N2C[C@@H](C)[C@@H](n3nc(CC(=O)O)c4cc5c(cc43)OCO5)C2)cn1 [Compound I-176] | 100 to 5000 | < 100 |  | 
26 | COc1ccc(S(=O)(=O)N2C[C@@H](C)[C@@H](n3nc(CC(=O)O)c4ccccc43)C2)s1 [Compound I-178] | 100 to 5000 | < 100 |  | 
27 | COc1ccc(S(=O)(=O)N2C[C@@H](C)[C@@H](n3nc(CC(=O)O)c4ccc(F)cc43)C2)s1 [Compound I-179] | < 100 | < 100 |  | 
28 | COc1ccc(S(=O)(=O)N2C[C@@H](C)[C@@H](n3nc(CC(=O)O)c4ccc(C)cc43)C2)s1 [Compound I-180] | 100 to 5000 | < 100 |  | 
29 | CCOc1ccc(S(=O)(=O)N2C[C@@H](C)[C@@H](n3nc(CC(=O)O)c4ccccc43)C2)c(C=NOC)c1 [Compound I-181] | 100 to 5000 | 100 to 5000 |  | 
30 | CCOc1ccc(S(=O)(=O)N2C[C@@H](C)[C@@H](n3nc(CC(=O)O)c4ccccc43)C2)c(/C=C/COC)c1 [Compound I-182] | 100 to 5000 | < 100 |  | 
31 | CCOc1ccc(S(=O)(=O)N2C[C@@H](C)[C@@H](n3nc(CC(=O)O)c4ccccc43)C2)c(CCCOC)c1 [Compound I-183] | 100 to 5000 | < 100 |  | 
32 | CCOc1ccc(S(=O)(=O)N2C[C@@H](C)[C@@H](n3nc(CC(=O)O)c4ccccc43)C2)c(COC)c1 [Compound I-184] | 100 to 5000 | < 100 |  | 
33 | CCOc1ccc(S(=O)(=O)N2C[C@@H](C)[C@@H](n3nc(CC(=O)O)c4ccccc43)C2)c(/C=C/c2ccccc2)c1 [Compound I-185] | 100 to 5000 | < 100 |  | 
34 | CCOc1ccc(S(=O)(=O)N2C[C@@H](C)[C@@H](n3nc(CC(=O)O)c4ccccc43)C2)c(CCc2ccccc2)c1 [Compound I-186] | 100 to 5000 | < 100 |  | 
35 | CCOc1ccc(S(=O)(=O)N2C[C@@H](C)[C@@H](n3nc(CC(=O)O)c4ccccc43)C2)c(-c2ccccc2)c1 [Compound I-187] | 100 to 5000 | < 100 |  | 
36 | CCOc1ccc(S(=O)(=O)N2C[C@@H](C)[C@@H](n3nc(CC(=O)O)c4ccccc43)C2)cc1[N+](=O)[O-] [Compound I-188] | 100 to 5000 | 100 to 5000 |  | 
37 | COCCOc1ccc(S(=O)(=O)N2C[C@@H](C)[C@@H](n3nc(CC(=O)O)c4ccccc43)C2)cc1 [Compound I-189] | 100 to 5000 | < 100 |  | 
38 | CC(C)OCCOc1ccc(S(=O)(=O)N2C[C@@H](C)[C@@H](n3nc(CC(=O)O)c4ccccc43)C2)cc1 [Compound I-190] | 100 to 5000 | < 100 |  | 
39 | CCOCCOc1ccc(S(=O)(=O)N2C[C@@H](C)[C@@H](n3nc(CC(=O)O)c4ccccc43)C2)cc1 [Compound I-191] | 100 to 5000 | < 100 |  | 
40 | C[C@@H]1CN(S(=O)(=O)c2ccc(OCCOc3ccccc3)cc2)C[C@@H]1n1nc(CC(=O)O)c2ccccc21 [Compound I-192] | 100 to 5000 | < 100 |  | 
41 | C[C@@H]1CN(S(=O)(=O)c2ccc(OCCOC(C)(C)C)cc2)C[C@@H]1n1nc(CC(=O)O)c2ccccc21 [Compound I-193] | 100 to 5000 | 100 to 5000 |  | 
42 | C[C@H]1CN(S(=O)(=O)c2ccc(OC(F)F)cc2)C[C@@H]1n1nc(CC(=O)O)c2ccccc21 [Compound I-194] | 100 to 5000 | < 100 |  | 
43 | C[C@@H]1CN(S(=O)(=O)c2ccc(OC(F)F)cc2)C[C@H]1n1nc(CC(=O)O)c2ccccc21 [Compound I-195] | 100 to 5000 | < 100 |  | 
44 | CCOc1ccc(S(=O)(=O)N2C[C@H](n3nc(CC(=O)O)c4ccccc43)C[C@@H]2C)cc1 [Compound I-196] | < 100 | < 100 |  | 
45 | CCOc1ccc(S(=O)(=O)N2C[C@@H](C)[C@H](n3nc(CC(=O)O)c4ccccc43)C2)cc1 [Compound I-197] | 100 to 5000 | 100 to 5000 |  | 
